Test results reported in patent US20230129034A1, “TREATMENT OF DISEASE WITH ESTERS OF SELECTIVE RXR AGONISTS” (Io Therapeutics, Inc., priority 2017, published 2023).
“Also recorded” adds a separate entry of the source.

Key:
RXRα = target: T1, RXRα (Homo sapiens, UniProt P19793); experiment: RXR homodimer transactivation assay (rCRBPII/RXRE-tk-Luc reporter, CV-1 cells); assay type: cell-based
T1 construct: an expression construct including a full length RXRα, RXRβ, or RXRy; expressed in transfected cells; host or cells: CV-1
T1 sequence (P19793 1-462): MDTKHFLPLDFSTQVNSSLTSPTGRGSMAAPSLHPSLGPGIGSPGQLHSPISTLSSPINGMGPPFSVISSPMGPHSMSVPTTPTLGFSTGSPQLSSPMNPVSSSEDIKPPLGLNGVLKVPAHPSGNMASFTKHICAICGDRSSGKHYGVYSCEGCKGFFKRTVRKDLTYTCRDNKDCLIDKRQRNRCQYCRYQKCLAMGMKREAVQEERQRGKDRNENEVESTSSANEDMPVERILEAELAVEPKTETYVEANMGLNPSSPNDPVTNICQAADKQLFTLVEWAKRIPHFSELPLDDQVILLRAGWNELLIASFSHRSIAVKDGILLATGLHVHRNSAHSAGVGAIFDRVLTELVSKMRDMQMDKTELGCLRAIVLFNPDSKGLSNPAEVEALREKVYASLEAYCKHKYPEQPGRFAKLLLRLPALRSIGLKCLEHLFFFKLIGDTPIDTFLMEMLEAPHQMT
Description: (§1) Data are mean values ± SE from five independent experiments.

RXRβ = target: T2, RXRβ (Homo sapiens, UniProt P28702); experiment: as above; assay type: cell-based
T2 construct: an expression construct including a full length RXRα, RXRβ, or RXRy; expressed in transfected cells; host or cells: CV-1
T2 sequence (P28702 1-533): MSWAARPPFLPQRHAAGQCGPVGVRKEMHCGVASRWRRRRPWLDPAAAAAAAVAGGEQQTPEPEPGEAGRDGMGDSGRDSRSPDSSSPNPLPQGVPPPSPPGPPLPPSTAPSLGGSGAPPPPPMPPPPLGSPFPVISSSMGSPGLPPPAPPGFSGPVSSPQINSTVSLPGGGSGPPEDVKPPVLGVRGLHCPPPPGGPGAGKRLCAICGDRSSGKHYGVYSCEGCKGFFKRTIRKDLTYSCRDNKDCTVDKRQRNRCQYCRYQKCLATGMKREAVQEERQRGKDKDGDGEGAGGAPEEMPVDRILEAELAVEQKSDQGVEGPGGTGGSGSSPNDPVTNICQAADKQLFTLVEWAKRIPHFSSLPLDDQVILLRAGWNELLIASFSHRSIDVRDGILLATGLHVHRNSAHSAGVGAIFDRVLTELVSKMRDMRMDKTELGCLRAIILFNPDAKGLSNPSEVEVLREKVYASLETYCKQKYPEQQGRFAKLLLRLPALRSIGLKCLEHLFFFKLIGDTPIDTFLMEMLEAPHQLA
Description: as §1

RXRγ = target: T3, RXRγ (Homo sapiens, UniProt P48443); experiment: as above; assay type: cell-based
T3 construct: an expression construct including a full length RXRα, RXRβ, or RXRy; expressed in transfected cells; host or cells: CV-1
T3 sequence (P48443 1-463): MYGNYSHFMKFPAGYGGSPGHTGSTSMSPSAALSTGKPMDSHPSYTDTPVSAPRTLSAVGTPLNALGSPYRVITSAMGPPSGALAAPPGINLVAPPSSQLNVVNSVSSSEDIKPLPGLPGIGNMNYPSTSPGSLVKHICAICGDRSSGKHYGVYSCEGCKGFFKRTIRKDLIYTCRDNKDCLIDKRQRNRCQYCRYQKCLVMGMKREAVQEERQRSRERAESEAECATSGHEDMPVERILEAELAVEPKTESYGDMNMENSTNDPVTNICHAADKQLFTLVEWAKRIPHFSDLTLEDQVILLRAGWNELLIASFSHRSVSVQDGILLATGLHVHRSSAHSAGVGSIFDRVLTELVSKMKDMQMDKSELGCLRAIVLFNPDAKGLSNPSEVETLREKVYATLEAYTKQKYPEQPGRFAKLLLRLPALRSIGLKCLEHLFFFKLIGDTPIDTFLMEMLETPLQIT
Description: as §1

RARα = target: T4, RARα (Homo sapiens, UniProt P10276); experiment: RAR transactivation assay (ER-RAR fusion, ERE-tk-Luc reporter, CV-1 cells); assay type: cell-based
T4 construct: expressed in transfected cells; host or cells: CV-1
Description: as §1

[1] = tested on: CNS infiltrating leukocytes in C57BL/6 (B6) mice; experiment: CNS infiltrating cells in EAE B6 mice (flow cytometry, day 20); assay type: in vivo; conditions: day 20 after immunization
Procedure: To determine whether a RXR agonist can reduce central nervous system (CNS) infiltrating cells, C57BL/6 (B6) mice were treated as described in Example 6. On day 20 after immunization, mice were sacrificed and perfused with phosphate buffered saline (PBS). Brain and spinal cord tissue was isolated, digested with DNase and LIBERASE DL® (Roche Diagnostics, Indianapolis, IN) for 30 minutes, and homogenized through 70 micron nylon mesh filters. Resulting cells were placed over a Percoll gradient to remove myelin. The remaining cells (microglia and CNS infiltrating cells) were counted, stained for molecules of interest, and run on a flow cytometer. Based on the frequencies obtained by FACS of these cell populations, total cell numbers of CNS infiltrating leukocytes expressing CD45, including CD4^+ T cells and CD11c^+ CD11b^+ myeloid dendritic cells (DC), were calculated.

[2] = tested on: oligodendrocyte precursor cells (OPCs); experiment: Oligodendrocyte precursor cell differentiation (PLP-EGFP OPCs); assay type: cell-based, mouse; conditions: for OPC differentiation into oligodendrocytes (EGFP positive cells): compared to negative control (DMSO)
Description: OPCs were generated from a neurosphere culture of E14.5 PLP-EGFP (on C57BL/6J background) mouse brains. […] The EGFP expressing cells were quantified with Cellomics Neuronal Profiling Algorithm.
The EGFP expressing cells in controls and all compounds were quantified with Cellomics Neuronal Profiling Algorithm.

[3] = Plasma and brain concentrations after intravenous injection in ICR mice (LC-MS/MS); assay type: in vivo; conditions: 1 mg/kg IV
Procedure: The compounds were dissolved in 4% DMSO, 1% Tween80 and 95% PBS(v/v) at a concentration of 0.2 mg/ml. Each mouse was injected with a volume to deliver 1 mg/kg of the compound (corresponding to 3 mg/m^2).
At designated time points (0.5, 1.5, and 3 hr), with the mice under terminal isofluorane anesthesia, systemic blood sample (ca 0.4-0.5 mL) were collected by cardiac puncture into micro-tube containing sodium EDTA-K2 as anti-coagulant (n=3 at each time point). Blood samples from the IRX4204EE arm of the study had appropriate esterase inhibitors added. The blood was centrifuged at 13000 rpm for 3 min at 4° C. to obtain plasma and protein was precipitated with acetonitrile prior to being assayed for compound content. The brain was removed and transferred to a pre-weighed vessel for weight determination. Brain tissue was homogenized in five volumes of PBS, centrifuged, and the supernatant assayed for compound content. […] The same standard curve was used to quantitate analyte concentrations in both brain and plasma.

[4] = CV-1 cells, 20 hours, luciferase activity

T4 sequence (P10276 183-417 limits assumed, species assumed): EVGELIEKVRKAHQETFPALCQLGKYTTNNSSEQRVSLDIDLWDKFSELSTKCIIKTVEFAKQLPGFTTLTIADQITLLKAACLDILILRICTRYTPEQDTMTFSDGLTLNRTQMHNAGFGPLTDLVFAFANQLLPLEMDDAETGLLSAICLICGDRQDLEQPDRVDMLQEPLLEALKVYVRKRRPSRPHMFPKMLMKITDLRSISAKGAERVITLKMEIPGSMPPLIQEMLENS

CC(/C=C/[C@@H]1C[C@]1(C)c1ccc2c(c1)C(C)(C)CCC2(C)C)=C\C(=O)O [IRX4204, 3,7-dimethyl-6(S),7(S)-methano,7-[1,1,4,4-tetramethyl-1,2,3,4-tetrahydronaphth-7-yl]2(E),4(E) heptadienoic acid]
EC90 (RXRα; CV-1): ~0.1 nM
Efficacy (% of 1 µM IRX4204) RXRα (RXRα; [4]): 100 % of 1 µM IRX4204
EC90 (RXRβ; CV-1, read-out: EC90 with RXRβ): ~1 nM
Efficacy (% of 1 µM IRX4204) RXRγ (RXRγ): 0.09 ±0.01 100 % of 1 µM IRX4204
EC90 (RXRγ; CV-1, read-out: EC90 with RXRγ): ~0.1 nM
EC10 with RARα (RARα): about 300 nM
infiltration of CD4+ cells into the CNS [1]: significant reduction
infiltration of CD11c+ CD11b+ cells (myeloid DC) into the CNS [1]: significant reduction
OPC differentiation into oligodendrocytes by concentration ([2]; all tested concentrations but the lowest concentration (1^-6 µM)): significant increase in OPC differentiation
total cell number and pyknotic cells ([2]; compared to controls): did not show any differences
OPC differentiation into oligodendrocytes (EGFP positive cells) [2]: promotes OPC differentiation
concentration at 3 h ([3]; male, ICR, mouse, brain, 3 hours post-administration): 7.9 to 8.2 nM

CCOC(=O)/C=C(C)/C=C/[C@@H]1C[C@]1(C)c1ccc2c(c1)C(C)(C)CCC2(C)C [IRX4204EE, 3,7-dimethyl-6(S),7(S)-methano,7-[1,1,4,4-tetramethyl-1,2,3,4-tetrahydronaphth-7-yl]2(E),4(E) heptadienoic ethyl ester]
EC50 (RXRα; [4]): > 1000 nM
EC50 (RXRβ; [4]): > 1000 nM
EC50 (RXRγ; [4]): > 1000 nM
EC50 (RARα; [4]): > 1000 nM
infiltration of CD4+ cells into the CNS [1]: even greater reduction
infiltration of CD11c+ CD11b+ cells (myeloid DC) into the CNS [1]: even greater reduction
OPC differentiation into oligodendrocytes (EGFP positive cells) [2]: essentially no activity; also recorded: considerably less active
concentration of the ester in the brain over the course of the experiment ([3]; 0.5 to 3 hr): rose slightly
concentration of the ester in blood compared with brain ([3]; 3 hour time point): approximately the same
blood concentration of the ester itself relative to IRX4204 ([3]; 3 hours): about 5 fold
concentration of IRX4204 in the blood from the ester form compared with the free acid form ([3]; 3 hours): about the same
blood concentration of IRX4204 due to conversion of IRX4204EE relative to that due to IV injection of IRX4204 ([3]; half-hour time point): about one sixth
